Experimental data as given in patent US8101777B2, “Ionic liquids based on imidazolium salts incorporating a nitrile functionality” (Ecole Polytechnique Federale de Lausanne, priority 2003, dated 2012).

What was measured:
[1] = Stability of the nitrile-functionalised anion towards catalytic hydrogenation; type: physicochemical; conditions: 8 mg with RuCl2(PMe3)4 (1 mg) in acetone, H2 40 bar, 35° C., 48 hours
Description: The stability of the nitrile-functionalised anion towards catalytic hydrogenation is tested by pressurising a solution of K[CH3CH(BF3)CH2CN] (8 mg) and RuCl2(PMe3)4 (1 mg) in acetone (0.4 ml) with H2 (40 bar) at 35° C.

[2] = Viscosity, Brookfield DV-II+ viscometer; type: physicochemical
Description: The 1-methylimidazole and 1,2-dimethylimidazole and chloronitriles are purchased from Fluka, HPF6 and NaBF4 are purchased from Aldrich and are used as received without further purification. The synthesis of the imidazolium salts 1a-5a is performed under an inert atmosphere of dry nitrogen using standard Schlenk techniques in solvents dried using the appropriate reagents and distilled prior to use. All other compounds are made without precautions to exclude air or moisture. IR spectra are recorded on a Perkin-Elmer FT-IR 2000 system. […] Electrospray ionization mass spectra (ESI-MS) are recorded on a ThermoFinnigan LCQ™ Deca XP Plus quadrupole ion trap instrument on sample diluted in methanol.^19 Samples are infused directly into the source at 5 μL min^−1 using a syringe pump and the spray voltage is set at 5 kV and the capillary temperature at 50° C. Samples 2c, 3c, 4a, 4b and 4c are purified by filtration through silica and left under vacuum (ca. 0.1 mm Hg) at 40-50° C. in order to remove traces of salt impurities and volatile components. […] Density is determined with a picometer at room temperature (20±1° C.) on 1.0 ml of sample. The measurements are repeated three times and average values are used. Viscosities are measured with a Brookfield DV-II+ viscometer on 0.50 ml of sample. […] The measurements are performed in duplicate.

[3] = Density determined with a picometer; type: physicochemical; conditions: room temperature (20±1° C.), 1.0 ml of sample, average of three
Description: The 1-methylimidazole and 1,2-dimethylimidazole and chloronitriles are purchased from Fluka, HPF6 and NaBF4 are purchased from Aldrich and are used as received without further purification. The synthesis of the imidazolium salts 1a-5a is performed under an inert atmosphere of dry nitrogen using standard Schlenk techniques in solvents dried using the appropriate reagents and distilled prior to use. All other compounds are made without precautions to exclude air or moisture. IR spectra are recorded on a Perkin-Elmer FT-IR 2000 system. […] Electrospray ionization mass spectra (ESI-MS) are recorded on a ThermoFinnigan LCQ™ Deca XP Plus quadrupole ion trap instrument on sample diluted in methanol.^19 Samples are infused directly into the source at 5 μL min^−1 using a syringe pump and the spray voltage is set at 5 kV and the capillary temperature at 50° C. Samples 2c, 3c, 4a, 4b and 4c are purified by filtration through silica and left under vacuum (ca. 0.1 mm Hg) at 40-50° C. in order to remove traces of salt impurities and volatile components. […] Density is determined with a picometer at room temperature (20±1° C.) on 1.0 ml of sample. The measurements are repeated three times and average values are used. Viscosities are measured with a Brookfield DV-II+ viscometer on 0.50 ml of sample. The temperature of the samples is maintained to 25±1° C. by means of an external temperature controller. The measurements are performed in duplicate.

[4] = Solubility in common solvents
[5] = 25±1° C., 0.50 ml of sample, duplicate

Reduction of the nitrile-functionalised anion under catalytic hydrogenation [1]	Compound	Viscosity ([2]; 20° C.)	Density [3]	Viscosity [2, 5]	Solubility in common solvents: Acetone [4]	Solubility in common solvents: Et2O [4]	Solubility in common solvents: EtOH [4]	Solubility in common solvents: H2O [4]	Solubility in common solvents: Hexane [4]
No reduction was observed	CC(CC#N)[B-](F)(F)F.[K+] (stereo not drawn) [K[CH3CH(BF3)CH2CN]]								
	Cn1cc[n+](CCCC(=O)O)c1.F[B-](F)(F)F [[C3COOHmim][BF4], 1-methyl-3-proylcarboxylimidazolium tetrafluoroborate, reference compound]	4415 cp							
	CCCCn1cc[n+](C)c1.F[B-](F)(F)F [[C4mim][BF4], 1-methyl-3-butylimidazolium tetrafluoroborate, reference compound]	115.2 cp	1.14 g/mL	115.2 mpa · s	miscible	immiscible	immiscible	miscible	
	CCCCn1cc[n+](C)c1.F[P-](F)(F)(F)(F)F [[C4mim][PF6], reference compound]		1.37 g/mL	320.3 mpa · s	miscible	immiscible	partly	partly	immiscible
	C=CC[n+]1ccn(C)c1.F[B-](F)(F)F [[CC═Cmim][BF4], 1-methyl-3-allylimidazolium tetrafluoroborate, reference compound]	6110 cp							
	[1-butylnitrile-3-methylimidazolium]BF4 [[C4CNmim][BF4]]		1.71 g/mL	552.9 mpa · s	miscible	immiscible	immiscible	miscible	immiscible
	[1-butylnitrile-3-methylimidazolium]Cl [[C4CNmim][Cl]]		1.61 g/mL	5222 mpa · s	immiscible	immiscible	miscible	miscible	immiscible
	[1-butylnitrile-3-methylimidazolium]PF6 [[C4CNmim][PF6]]		1.99 g/mL	2181 mpa · s	miscible	immiscible	immiscible	partly	immiscible
	[1-ethyinitrile-3-methylimidazolium]BF4 [[C2CNmim][BF4]]		2.15 g/mL	65.5 mpa · s	miscible	immiscible	miscible	miscible	immiscible
	[1-ethylnitrile-3-methylimidazolium]Cl [[C2CNmim][Cl]]		2.67 g/mL	2856 mpa · s	immiscible	immiscible	miscible	miscible	immiscible
	[1-propylnitrile-3-methylimidazolium]BF4 [[C3CNmim][BF4]]	230.0 cp	1.87 g/mL	230 mpa · s	miscible	immiscible	immiscible	miscible	immiscible
